Laboratory results published in EP1377579B1 (Aventis Pharmaceuticals Inc., priority 2000, dated 2002).
Structures can show the parent of a compound that is named as a salt.

Experiments:
cdk4/cyclin D1 = cdk4/cyclin D1 (Homo sapiens, UniProt P11802); test: Cyclin-dependent kinase assay, cdk4/cyclin D1; format: biochemical; details: cyclin D1/cdk4; GST-pRb substrate, 10 µM ATP
MDA-MB-435 = test: In vitro proliferation assay (MTT), MDA-MB-435; format: cell-based, human; details: Homo sapiens, MDA-MB-435, MTT assay; value (SD, n) where given; read-out: MB-435 Breast (IC50 µM)
Method in brief: (§1)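 Following 3 days of compound treatment, MTT was added and the dye dissolved in DMSO for 570 nm absorbance; IC50s derived from these raw readings. Seeding density 1000 to 2500 cells/well depending on line, with overnight recovery before dosing.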

NCI-H460 = test: In vitro proliferation assay (MTT), NCI-H460; format: cell-based; details: Homo sapiens, NCI-H460; MTT assay; value (SD, n) where given; read-out: H-460 Lung (IC50 µM)
Protocol: (§2) The proliferation of tumor cells can be measured using a tetrazolium salt-based assay known as the MTT (3-[4,5-Dimethylthiazol-2-yl]-2,5-diphenyltetrazolium bromide) assay. The proliferation test is performed essentially as described by Carmichael et al., Cancer Res. 47: 936-942, 1987. For the assay, the cell lines are plated onto 96 well plates at 1000 to 2500 cells/well (depending on the properties of the individual cell lines), left to attach and recover overnight. […] After 3 days, the cells are incubated with MTT dye (3-[4,5-Dimethylthiazol-2-yl]-2,5-diphenyltetrazolium bromide, Sigma # M5655, 10 mg/ml in Hank's Buffered Saline) to estimate the amount of live cells remaining vs. concentration for the test compounds. Specifically, MTT solution is added to a final concentration of […] and the plates incubated at 37 C for 2 to 4 hr. The MTT and culture medium is then removed from the cultures and 200 µl of DMSO is added to solubilize the dye from the cell layer. The absorbance at 570 nm is determined for each culture using a Spectramax plate reader (Molecular Devices).
(§3) IC50s were determined from the raw data from either the MTT or SRB assays.
All of the cell lines were obtained from American Type Tissue Collection, with the ATCC accession number in parentheticals. MCF-7 and MDA-MB-231 cells were grown in improved minimum essential medium (Biofluids) without phenol red, supplemented with 5 % fetal bovine serum, 0.01 mg/ml gentamicin and 3 mM L-glutamine. All of the other cell lines were grown in RPMI 1640 medium (Life Technologies) supplemented with 5 % fetal bovine serum, 0.01 mg/ml gentamicin and 3 mM L-glutamine TABLE 3

PC-3 = test: In vitro proliferation assay (MTT), PC-3; format: cell-based, human; details: Homo sapiens, PC-3, MTT assay; value (SD, n) where given; read-out: PC-3 Prostate (IC50 µM)
Method in brief: as §1

Colo-205 = test: In vitro proliferation assay (MTT), Colo-205; format: cell-based; details: Homo sapiens, COLO 205; MTT assay; value (SD, n) where given; read-out: Colo-205 Colon (IC50 µM)
Protocol: as §2, §3

cdk1/cyclin B = cdk1/cyclin B (Homo sapiens, UniProt P06493); test: Cyclin-dependent kinase assay, cdk1/cyclin B; details: CDK1 IC50, nM, Histone H1, 10 µM ATP
Protocol: The IC50 values for cdk1/cyclin B, cdk2/cyclin E, and cdk4/cyclin D1 inhibition are determined using the following methods: • The cdk1 sequence (accession number Y00272) is amplified by PCR and cloned into the BamHI and SalI sites of pFASTBAC1 (Life Technologies).
The cyclin B1 sequence (accession number M25753) is amplified by PCR and cloned into the BamHI and SalI sites of pFASTBAC1 (Life Technologies).
The insect cell (Sf9) expression is optimized for each of the CDK/cyclin pairs according to the manufacturer's protocols (Life Technologies). For cdk4-HA/cyclin D1-His6 an infection of 0.1 multiplicity of infection (MOI) for 48 hours gives the best expression levels of the complex as well as activity.
The viruses are added to the cells and the culture is incubated at 27°C for the desired time. The cells are harvested by centrifugation at 3000 rpm for 10 minutes. The cells are snap frozen on dry ice and stored at - 80°C.
Cell extracts are made following a standard procedure. The cell pellet is resuspended in lysis buffer (50 mM HEPES, pH 8.0, 10 mM MgCl2, 1 mM DTT, 2.5 mM EGTA, 1 mM EDTA, 10 mM β-glycerophosphate, 1 mM sodium vanadate, 1 mM sodium fluoride, 1 x Protease inhibitor cocktail). The cells are lysed using the microfluidizer (Microfluidics) for 20 minutes. Cell debris is removed by centrifugation at 100,000 x g. The cell extracts are aliquoted in 1 ml aliquots, frozen on dry ice, and stored at -80°C.
The kinase reactions are performed following a standard procedure. The enzyme and inhibitor are diluted in kinase buffer (50 mM HEPES, pH 8.0, 10 mM MgCl2, 2.5 mM EGTA, 10 mM β-glycerophosphate, 1 mM sodium vanadate, 1 mM sodium fluoride, and 1 mM DTT) and pre-incubated for 30 minutes. […] The cdk1 enzyme activity is assayed using Histone H1 (Sigma) in the presence of 10 µM ATP for 30 min at room temperature. The reactions are terminated by the addition of 50 µL of 10 mM cold ATP to stop the reactions. The reactions are transferred to a pre-soaked 96-well multi-screen plate containing 30 µL of 100% TCA per well. After incubation for one hour at room temperature, the plates are washed twice with 200 µl of 20% TCA, followed by 200 µl of 10% TCA and finally with 200 µl of 5% TCA. After drying the plates at room temperature, the filter plates are placed in adapter plates (Packard) and 40 µl of Microscint-O® (Packard) is added to each well. Top Seal A film is used to cover the plates before counting in a Top Count Scintillation Counter.
The % remained activity of the indicated Cdk/cyclin kinase complex in the presence of inhibitor is calculated by the ratio of cpm in the presence of inhibitor to cpm in the absence of inhibitor (%Activity = vi/vo x 100%).

cdk2/cyclin E = cdk2/cyclin E (Homo sapiens, UniProt P24941); test: Cyclin-dependent kinase assay, cdk2/cyclin E; details: CDK2 IC50, nM, GST-pRb substrate, 10 µM ATP
in vivo = details: mouse, in vivo, iv, 3 mg/kg
Protocol: Male mice are given single intravenous cassette doses of CDK inhibitor compounds.
Doses are adjusted for the weight of the individual dihydrochloride and trihydrochloride salts. The compounds are stored desiccated within a closed cabinet at room temperature before use. Dose levels are prepared on the morning of each study.
A single intravenous cassette dose (18 or 15 mg/kg free base) is administered. For each compound, this is equivalent to a dose of approx. 3 mg/kg free base. […] The dose is administered at a volume of 10 ml/kg (total volume of approximately 0.25 ml/animal).
Male mice (Hsd:ICR (CD-1® SD®), Harlan), each weighing approximately 20 - 30 g at the start of the study. […] Water is available ad libitum throughout the study.
Dose Administration and Sample Collection: • A single cassette dose of 5-6 compounds is administered by bolus injection into the tail vein over a 10 - 15-second period. […] Whole blood (approximately 0.6 ml/sample) is obtained by cardiac puncture and transferred to 3 ml glass tubes containing 45 U sodium heparin.
Sample Processing: Plasma: Whole blood is centrifuged at approximately 3,200 rpm for 10 min at approximately 5°C and the plasma (approx. 0.3 ml/sample) is transferred to chilled plastic vials and stored at approx. -70°C until bioanalysis.
Sample Analysis: Concentrations of each test article in plasma are quantitated by a non-validated method based on LC/MS using the following protocol.
Samples are removed from the freezer, allowed to thaw at room temperature, and vortexed to insure complete homogenization prior to sample manipulation. Samples are then prepared according to the following scheme: • 1. transfer 48 µL of plasma (blank mouse sample) into a 12 x 75 mm test tube. • 2. add 12 µL of working standard to the blank plasma for standard curve preparation. • 3. […] Inject 25 µL on LC/MS.
Data Analysis: Concentrations of Compounds in plasma of individual animals are determined by bioanalytics. […] Statistical analyses are limited to simple expressions of variation (mean and standard deviation). The plasma AUC (area-under-curve) is determined by the linear trapezoidal rule. […] All PK parameters are determined by noncompartmental methods using WinNonlin version 3.0 (Pharsight Corp). Plasma vs. time profiles are prepared by Sigma Plot (SPSS, Inc.).

Chain of cdk4/cyclin D1 (P11802 whole entry): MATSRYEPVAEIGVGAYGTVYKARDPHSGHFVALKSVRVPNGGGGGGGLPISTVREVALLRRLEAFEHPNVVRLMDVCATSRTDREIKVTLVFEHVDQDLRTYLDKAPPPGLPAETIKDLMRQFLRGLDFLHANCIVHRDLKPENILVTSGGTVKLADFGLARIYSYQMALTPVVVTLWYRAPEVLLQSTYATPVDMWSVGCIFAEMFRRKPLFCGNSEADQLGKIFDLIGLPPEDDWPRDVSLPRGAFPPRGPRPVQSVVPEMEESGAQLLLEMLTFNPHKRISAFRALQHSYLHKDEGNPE
Chain of cdk4/cyclin D1 (P24385 whole entry partner): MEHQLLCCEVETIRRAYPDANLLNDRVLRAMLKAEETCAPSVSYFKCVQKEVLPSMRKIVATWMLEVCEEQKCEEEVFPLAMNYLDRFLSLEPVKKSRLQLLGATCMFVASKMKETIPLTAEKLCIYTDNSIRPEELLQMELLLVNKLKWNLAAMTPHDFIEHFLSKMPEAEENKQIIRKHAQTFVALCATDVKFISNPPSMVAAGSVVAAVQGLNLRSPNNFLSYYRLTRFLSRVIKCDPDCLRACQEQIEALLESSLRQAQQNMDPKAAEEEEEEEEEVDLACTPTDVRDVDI
Chain of cdk1/cyclin B (P06493 whole entry): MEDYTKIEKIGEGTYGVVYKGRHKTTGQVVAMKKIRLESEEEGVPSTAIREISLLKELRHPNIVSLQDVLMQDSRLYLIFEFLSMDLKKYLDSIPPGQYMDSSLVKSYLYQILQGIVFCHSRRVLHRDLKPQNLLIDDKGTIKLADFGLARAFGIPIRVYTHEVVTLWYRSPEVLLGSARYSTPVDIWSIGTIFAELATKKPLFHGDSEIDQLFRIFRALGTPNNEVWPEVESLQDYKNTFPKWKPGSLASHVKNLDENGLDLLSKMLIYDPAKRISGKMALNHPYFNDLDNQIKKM
Chain of cdk1/cyclin B (P14635 whole entry partner): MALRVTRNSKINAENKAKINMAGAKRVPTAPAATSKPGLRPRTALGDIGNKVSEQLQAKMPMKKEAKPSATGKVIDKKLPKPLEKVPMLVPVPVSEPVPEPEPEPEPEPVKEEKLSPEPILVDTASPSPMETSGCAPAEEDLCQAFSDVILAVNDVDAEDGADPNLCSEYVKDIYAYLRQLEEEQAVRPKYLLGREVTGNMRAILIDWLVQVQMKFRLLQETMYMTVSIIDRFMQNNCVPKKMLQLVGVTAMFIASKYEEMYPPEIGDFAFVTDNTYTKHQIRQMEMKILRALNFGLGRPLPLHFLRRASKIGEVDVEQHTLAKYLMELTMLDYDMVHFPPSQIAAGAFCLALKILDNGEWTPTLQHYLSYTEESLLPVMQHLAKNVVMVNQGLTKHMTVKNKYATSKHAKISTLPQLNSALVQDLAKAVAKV

| SMILES | IC50 (cdk4/cyclin D1) | IC50 (MDA-MB-435) | IC50 (NCI-H460) | IC50 (PC-3) | IC50 (Colo-205) | IC50 (cdk1/cyclin B) | IC50 (cdk2/cyclin E) | AUC(0-inf) (in vivo) | Cmax (in vivo) | half-life (in vivo) |
| --- | --- | --- | --- | --- | --- | --- | --- | --- | --- | --- |
| CC(CC(=O)N1CCC(Nc2nc(N[C@H]3CC[C@H](N)CC3)nc3c2ncn3C2CCCC2)CC1)CC(C)(C)C (mixture of isomers) [compound 45, (±)-trans-1-{4-[2-(4-Amino-cyclohexylamino)-9-cyclopentyl-9H-purin-6-ylamino]-piperidin-1-yl}-3,5,5-trimethyl-hexan-1-one dihydrochloride] | 485 nM | 0.31 µM | 0.28 µM | 0.45 µM | < 0.02 µM | 76 nM | 154 nM | – | – | – |
| CCC(C(=O)N1CCC(Nc2nc(N[C@H]3CC[C@H](N)CC3)nc3c2ncn3C2CCCC2)CC1)c1ccccc1 (relative stereo) [compound 41, trans-1-{4-[2-(4-Amino-cyclohexylamino)-9-cyclopentyl-9H-purin-6-ylamino]-piperidin-1-yl}-2-phenyl-butan-1-one dihydrochloride] | 404 nM | 0.3 µM | 0.31 µM | 0.38 µM | 0.11 µM | 59 nM | 93 nM | – | – | – |
| NC1CCC(Nc2nc(NCCCc3ccccc3)c3ncn(C4CCCC4)c3n2)CC1 (centres unmarked) [MDL 107167] | – | – | – | – | – | – | – | 531 ng·h/mL | 512 ng/mL | 1.7 h |
| N[C@H]1CC[C@H](Nc2nc(NC3CCN(C(=O)c4ccc(F)cc4)CC3)c3ncn(C4CCCC4)c3n2)CC1 [compound 1, trans-1-{4-[2-(4-Amino-cyclohexylamino)-9-cyclopentyl-9H-purin-6-ylamino]-piperidin-1-yl}-1-(4-fluoro-phenyl)-methanone dihydrochloride] | 555 nM | 0.69 µM | > 50 µM | 0.78 µM | > 50 µM | 64 nM | 98 nM | – | – | – |
| N[C@H]1CC[C@H](Nc2nc(NC3CCN(C(=O)c4ccc(C(F)(F)F)cc4)CC3)c3ncn(C4CCCC4)c3n2)CC1 [compound 2, trans-1-{4-[2-(4-Amino-cyclohexylamino)-9-cyclopentyl-9H-purin-6-ylamino]-piperidin-1-yl}-1-(4-trifluoromethyl-phenyl)-methanone dihydrochloride] | 427 nM | 0.26 µM | 0.15 µM | 1.17 µM | < 0.02 µM | 48 nM | 92 nM | – | – | – |
| N[C@H]1CC[C@H](Nc2nc(NC3CCN(C(=O)c4ccc5c(c4)OCO5)CC3)c3ncn(C4CCCC4)c3n2)CC1 [compound 5, trans-1-{4-[2-(4-Amino-cyclohexylamino)-9-cyclopentyl-9H-purin-6-ylamino]-piperidin-1-yl}-1-benzo[1,3]dioxol-5-yl-methanone dihydrochloride] | – | 0.43 µM | 0.27 µM | 0.66 µM | < 0.02 µM | – | – | – | – | – |
| N[C@H]1CC[C@H](Nc2nc(NC3CCN(C(=O)/C=C/c4cccc(C(F)(F)F)c4)CC3)c3ncn(C4CCCC4)c3n2)CC1 [compound 44, trans-(E)-1-{4-[2-(4-Amino-cyclohexylamino)-9-cyclopentyl-9H-purin-6-ylamino]-piperidin-1-yl}-3-(3-trifluoromethyl-phenyl)-propenone dihydrochloride] | – | 0.22 µM | 0.53 µM | 0.29 µM | 0.03 µM | – | 76 nM | – | – | – |
| CC(C)[C@@H]1CC[C@@H](C)C[C@H]1OC(=O)N1CCC(Nc2nc(N[C@H]3CC[C@H](N)CC3)nc3c2ncn3C2CCCC2)CC1 [compound 86, trans-4-[2-(4-Amino-cyclohexylamino)-9-cyclopentyl-9H-purin-6-ylamino]-piperidine-1-carboxylic acid (1R,2S,5R)-2-isopropyl-5-methyl-cyclohexyl ester dihydrochloride] | – | 0.52 µM | 0.4 µM | 0.69 µM | 0.29 µM | – | – | – | – | – |
